Test results reported in patent US10799555B2, “PD-1 peptide inhibitors” (Leidos, Inc., priority 2016, dated 2020).
pKd: −log10 of the molar value. Residues, ends and D or L forms follow the SMILES beside them.

Legend:
human PBMCs = format: cell-based; parameters: key: “x” indicates no effect; “−” indicates a possible low effect; “+” indicates some effect; “++” indicates a definite effect
mouse PD-1 = target: T1, mouse PD-1 (Mus musculus, UniProt Q02242); experiment: BIACORE assay, mouse PD-1; format: binding; settings: for Rmax / KA / pKd: ligand mouse PD-1 10,000 RU, 25° C.; for KA / pKd: steady state equilibrium; for binding / affinity towards mouse PD-1 (in words): BIACORE
T1 sequence (Q02242 25-288): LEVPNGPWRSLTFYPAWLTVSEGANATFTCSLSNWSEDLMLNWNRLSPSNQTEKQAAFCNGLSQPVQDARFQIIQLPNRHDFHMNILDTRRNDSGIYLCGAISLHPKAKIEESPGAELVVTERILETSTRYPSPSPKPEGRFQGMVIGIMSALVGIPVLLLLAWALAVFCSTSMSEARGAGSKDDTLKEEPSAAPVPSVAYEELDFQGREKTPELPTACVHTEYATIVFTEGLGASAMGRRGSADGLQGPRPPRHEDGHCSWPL
Description: (§1) BIACORE® assays were carried out using a BIACORE® T-200 at 25° C. The assay and regeneration buffers contained 10 mM HEPES (pH 7.4), 150 mM NaCl, 3 mM EDTA, and 0.05% P20. The immobilization buffer was 10 mM sodium acetate, pH 5.0. The flow rate used for immobilizing the ligand was 5 μl/min. The flow rate for kinetics analysis was 30 μl/min.
12,000 response units (RU) of human and 6000 RU of mouse PD-1 receptors were directly immobilized on flow cell 2 and flow cell 4 of the CMS chip by amine coupling method (EDC/NHS). The un-occupied sites were blocked with 1M ethanol amine. Scouting was performed at a single analyte concentration of 25 μM to confirm yes/no binding. Flow cell 1 was kept blank and used for reference subtraction. Binding of analyte to the ligand was monitored in real time.
Based on the scouting results, full kinetics were performed by immobilizing higher RU of the ligand to a new chip and analyte concentration at 25 μM, followed by serial dilution to 12.5, 6.25, 3.125, 1.562, 0.78 and 0 μM concentration or as indicated. Due to fast on rate and off rate, KD was determined by steady state equilibrium kinetics.
(§2) Chi square (χ2) analysis was carried out between the actual sensorgram and a sensorgram generated from the BIANALYSIS® software (black line) to determine the accuracy of the analysis. A χ2 value within 1-2 is considered significant (accurate) and below 1 is highly significant (highly accurate).

human PD-1 = human PD-1 (Homo sapiens, UniProt Q15116); experiment: BIACORE assay, human PD-1; format: binding; settings: for Rmax / KA / pKd: ligand human PD-1 10,000 RU, 25° C.; for KA / pKd: steady state equilibrium; for binding / affinity towards human PD-1 (in words): BIACORE
Description: as §1
[…] The un-occupied sites were blocked with 1M ethanol amine. Scouting was performed at a single analyte concentration of 25 μM to confirm yes/no binding. Flow cell 1 was kept blank and used for reference subtraction. Binding of analyte to the ligand was monitored in real time.
[…] Due to fast on rate and off rate, KD was determined by steady state equilibrium kinetics.
as §2

[1] = target: soluble recombinant human PD-1 receptor (Homo sapiens, UniProt Q15116); experiment: Clonal phage ELISA of phage display library clones; format: binding; settings: for Clonal Phase ELISA coated signal: after fifth round of panning; for Clonal Phase ELISA uncoated signal: uncoated (background)
Source text: The TriCo-20™ (TRICO-20™) and TriCo-16™ (TRICO-16™) Phage Display Peptide Libraries (Creative Biolabs, 45-1 Ramsey Road, Shirley, N.Y. 11967) were screened to identify binders of soluble recombinant human PD-1 receptor. After the fourth round of panning, obvious enrichment for specific binders was observed, and individual peptides were confirmed as weakly specific binders in a clonal phage ELISA. A fifth round of panning led to greater enrichment.

Chain of soluble recombinant human PD-1 receptor (Q15116 25-170 limits assumed): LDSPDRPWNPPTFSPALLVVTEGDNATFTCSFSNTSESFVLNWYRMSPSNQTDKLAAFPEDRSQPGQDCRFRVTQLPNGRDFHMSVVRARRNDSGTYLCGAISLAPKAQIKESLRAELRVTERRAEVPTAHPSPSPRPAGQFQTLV
Chain of human PD-1 (Q15116 25-288): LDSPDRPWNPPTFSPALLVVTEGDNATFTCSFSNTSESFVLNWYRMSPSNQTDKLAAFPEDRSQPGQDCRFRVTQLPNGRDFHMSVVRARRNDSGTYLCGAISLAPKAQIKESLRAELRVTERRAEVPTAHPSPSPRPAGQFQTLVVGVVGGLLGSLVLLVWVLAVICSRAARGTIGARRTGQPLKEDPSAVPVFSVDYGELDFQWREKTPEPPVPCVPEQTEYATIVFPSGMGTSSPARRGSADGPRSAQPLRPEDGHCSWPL

| Compound | IFNγ production (human PBMCs) | IL-2 production (human PBMCs) | IL-4 production (human PBMCs) | IL-6 production (human PBMCs) | IL-10 production (human PBMCs) | TNFα production (human PBMCs) | Rmax (mouse PD-1) | KA (mouse PD-1) | pKd (mouse PD-1) | Rmax (human PD-1) | KA (human PD-1) | pKd (human PD-1) | Clonal Phase ELISA coated signal [1] | Clonal Phase ELISA uncoated signal [1] | binding / affinity towards human PD-1 (in words) (human PD-1) | binding / affinity towards mouse PD-1 (in words) (mouse PD-1) |
| --- | --- | --- | --- | --- | --- | --- | --- | --- | --- | --- | --- | --- | --- | --- | --- | --- |
| CC[C@H](C)[C@H](NC(=O)[C@H](Cc1c[nH]c2ccccc12)NC(=O)[C@H](CCC(=O)O)NC(=O)[C@H](Cc1c[nH]cn1)NC(=O)[C@H](CCC(=O)O)NC(=O)[C@H](Cc1c[nH]cn1)NC(=O)[C@@H]1CCCN1C(=O)[C@H](CCCNC(=N)N)NC(=O)[C@@H](NC(=O)[C@H](Cc1c[nH]cn1)NC(=O)[C@H](Cc1c[nH]cn1)NC(=O)[C@H](CC(N)=O)NC(=O)[C@H](Cc1c[nH]cn1)NC(=O)[C@H](Cc1ccccc1)NC(=O)[C@H](CO)NC(=O)[C@H](C)NC(=O)[C@@H]1CCCN1C(=O)[C@H](CC(C)C)NC(=O)[C@H](CC(N)=O)NC(=O)[C@@H](N)Cc1c[nH]c2ccccc12)[C@@H](C)CC)C(=O)N[C@@H](CCC(N)=O)C(=O)O [WQ20] (H-WNLPASFHNHHIRPHEHEWIQ-OH; N-terminus and C-terminus assumed) | ++ | − | ++ | ++ | x | ++ | 270 RU | 1310 M⁻¹ | 3.12 | 84.7 RU | 3280 M⁻¹ | 3.52 | 0.275 | 0.115 |  |  |
| CSCC[C@H](NC(=O)CNC(=O)[C@@H](NC(=O)[C@H](Cc1c[nH]c2ccccc12)NC(=O)[C@H](Cc1c[nH]cn1)NC(=O)[C@H](CO)NC(=O)[C@H](CCCNC(=N)N)NC(=O)[C@@H](NC(=O)[C@H](CCC(N)=O)NC(=O)[C@H](Cc1ccc(O)cc1)NC(=O)[C@@H](NC(=O)[C@H](CCC(N)=O)NC(=O)[C@H](Cc1c[nH]cn1)NC(=O)[C@H](Cc1c[nH]cn1)NC(=O)[C@@H](N)Cc1c[nH]cn1)C(C)C)C(C)C)[C@@H](C)O)C(=O)N[C@@H](Cc1c[nH]cn1)C(=O)N[C@@H](CO)C(=O)NCC(=O)N[C@@H](Cc1c[nH]cn1)C(=O)N[C@@H](CC(=O)O)C(=O)O [HD20] (H-HHHQVYQVRSHWTGMHSGHD-OH; N-terminus and C-terminus assumed) | ++ | − | x | ++ | x | ++ | 76 RU | 4250 M⁻¹ | 3.63 | 3.35 RU | 318000 M⁻¹ | 5.47 | 0.281 | 0.109 | highest affinity |  |
| CSCC[C@H](NC(=O)[C@H](CCCCN)NC(=O)[C@H](Cc1ccccc1)NC(=O)[C@H](Cc1c[nH]cn1)NC(=O)[C@H](Cc1c[nH]cn1)NC(=O)[C@H](Cc1ccc(O)cc1)NC(=O)[C@H](CO)NC(=O)[C@@H](N)CO)C(=O)N1CCC[C@H]1C(=O)N[C@@H](CCC(=O)O)C(=O)N[C@@H](CC(C)C)C(=O)N[C@@H](Cc1c[nH]cn1)C(=O)N[C@@H](Cc1ccccc1)C(=O)NCC(=O)N[C@@H](CCCCN)C(=O)N[C@@H](CC(N)=O)C(=O)N[C@H](C(=O)N[C@@H](Cc1ccccc1)C(=O)N[C@@H](Cc1c[nH]cn1)C(=O)N[C@@H](CCC(N)=O)C(=O)O)[C@@H](C)O [SQ20] (H-SSYHHFKMPELHFGKNTFHQ-OH; N-terminus and C-terminus assumed) | ++ | + | − | ++ | + | + | 12.8 RU | 21400 M⁻¹ | 4.33 | 4.05 RU | 194000 M⁻¹ | 5.29 | 0.284 | 0.159 | highest affinity | highest affinity |
| CC[C@H](C)[C@H](NC(=O)[C@H](CCCCN)NC(=O)[C@@H]1CCCN1C(=O)[C@H](CCSC)NC(=O)[C@@H]1CCCN1C(=O)[C@@H](NC(=O)[C@@H](NC(=O)[C@H](CCCNC(=N)N)NC(=O)[C@@H](NC(=O)[C@@H](N)CCC(N)=O)[C@@H](C)O)[C@@H](C)O)C(C)C)C(=O)N[C@@H](Cc1c[nH]cn1)C(=O)N[C@@H](Cc1c[nH]cn1)C(=O)N1CCC[C@H]1C(=O)N1CCC[C@H]1C(=O)N[C@@H](Cc1c[nH]c2ccccc12)C(=O)N[C@@H](CCC(N)=O)C(=O)N[C@@H](CC(N)=O)C(=O)N[C@H](C(=O)N[C@H](C(=O)N1CCC[C@H]1C(=O)O)C(C)C)C(C)C [QP20] (H-QTRTVPMPKIHHPPWQNVVP-OH; N-terminus and C-terminus assumed) | x | x | − | x | x | x | 13.4 RU | 18000 M⁻¹ | 4.26 | 3.83 RU | 93600 M⁻¹ | 4.97 | 0.851 | 0.446 |  | highest affinity |
| Mouse PD-L1: mouse PD-L1 used as analyte on immobilized mouse PD-1 in BIACORE [reference compound] |  |  |  |  |  |  | 259 RU | 2.75e+06 M⁻¹ |  |  |  |  |  |  |  |  |
